Test results published in patent US11286251B2, “Matrix metalloproteinase inhibitors and imaging agents, and methods using same” (Yale University, priority 2016, dated 2022).
“Also recorded” adds a separate entry of the source. Where two headings read alike, the source gives them in different places.

What was measured:
rhMMP-13 = rhMMP-13 (Homo sapiens, UniProt P45452); assay: MMP inhibition assay, fluorogenic substrate cleavage (Ki); details: read-out: Ki rhMMP-13; mean ± SE
Description: (§1) MMPs were purchased from R&D Systems (Minneapolis, Minn.). MMP inhibition assays were carried out in 50 mM Tris/HCl buffer, pH=6.8, 10 mM CaCl2 at 25° C. […] Titration experiments were carried out to determine active enzyme concentration for each MMP prior to the assay. For each probe, the % of inhibition was determined from five different concentrations in triplicates, chosen to reach a range of 20-80% inhibition.
(§2) The recombinant human MMPs including rhMMP-2, rhMMP-9, and rhMMP-12 obtained from R&D Systems (Minneapolis, Minn., USA) were activated by 1 mM p-aminophenylmercuric acetate (APMA, Sigma) at 37° C. for certain hours according to the manufacturer's instructions. The activated MMPs were diluted in the assay buffer consisting of 50 mM Tris, 10 mM CaCl2, 150 mM NaCl, 0.05% Brij-35 (w/v), pH 7.5 (TCNB). The assays were carried out in 96-well non-binding surface black microplates (Fisher Scientific).
(§3) The solutions were incubated at room temperature for 20 min. 10 μL of the fluorogenic MMP substrate i.e. Mca-KPLGL-Dpa-AR-NH2 (R&D Systems) at 4 different concentrations (such as 50.0 μM, 40.0 μM, 30.0 μM, and 20.0 μM) in assay buffer were added before starting the fluorescence measurements. The kinetics (v) of fluorescence changes were measured at excitation and emission wavelengths of 320 nm and 405 nm for 30 min (1.44 min intervals, sensitivity 100, shaking intensity 4, duration 30 s) by a fluorescent plate reader (BIO-TEK/Synergy HT). The inhibition constants (Ki) of the inhibitor with MMPs were calculated from the mean velocity values using GraphPad Prism 6 by the equation:

rhMMP-2 = biological target: T1, rhMMP-2 (Homo sapiens, UniProt P08253); assay: as above
T1 sequence (P08253 110-660): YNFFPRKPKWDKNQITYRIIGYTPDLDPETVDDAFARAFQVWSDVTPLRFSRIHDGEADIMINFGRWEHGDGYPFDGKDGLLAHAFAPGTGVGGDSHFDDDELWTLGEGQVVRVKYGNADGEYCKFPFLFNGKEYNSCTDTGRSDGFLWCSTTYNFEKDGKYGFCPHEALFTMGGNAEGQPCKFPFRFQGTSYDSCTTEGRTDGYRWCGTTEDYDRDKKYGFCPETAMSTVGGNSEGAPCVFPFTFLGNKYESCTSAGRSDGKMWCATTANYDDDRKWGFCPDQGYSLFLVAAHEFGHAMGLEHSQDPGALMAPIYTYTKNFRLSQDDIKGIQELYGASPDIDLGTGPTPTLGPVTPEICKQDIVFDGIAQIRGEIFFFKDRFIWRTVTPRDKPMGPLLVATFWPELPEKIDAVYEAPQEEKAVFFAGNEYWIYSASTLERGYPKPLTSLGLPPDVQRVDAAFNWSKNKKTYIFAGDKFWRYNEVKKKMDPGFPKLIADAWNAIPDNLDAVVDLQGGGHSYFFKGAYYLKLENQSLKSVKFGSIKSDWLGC
Description: (§4) MMP inhibition assays were carried out in 50 mM Tris/HCl buffer, pH=6.8, 10 mM CaCl2 at 25° C. […] Titration experiments were carried out to determine active enzyme concentration for each MMP prior to the assay.
as §2
(§5) The solutions were incubated at room temperature for 20 min. 10 μL of the fluorogenic MMP substrate i.e. Mca-KPLGL-Dpa-AR-NH2 (R&D Systems) at 4 different concentrations (such as 50.0 μM, 40.0 μM, 30.0 μM, and 20.0 μM) in assay buffer were added before starting the fluorescence measurements. […] The inhibition constants (Ki) of the inhibitor with MMPs were calculated from the mean velocity values using GraphPad Prism 6 by the equation:

Aqueous solubility = assay type: physicochemical
rhMMP-12 = rhMMP-12 (Homo sapiens, UniProt P39900); assay: MMP inhibition assay, fluorogenic substrate cleavage (Ki)
Description: as §1, §2, §3

rhMMP-9 = rhMMP-9 (Homo sapiens, UniProt P14780); assay: as above
Description: as §4, §2, §5

rhMMPs = assay: In vitro MMP binding screens (panel); details: several MMPs
Description: as §1, §2, §3

rhMMP-7 = biological target: T2, rhMMP-7 (Homo sapiens, UniProt P09237); assay: MMP inhibition assay, fluorogenic substrate cleavage (Ki); details: read-out: Ki rhMMP-7; mean ± SE
T2 sequence (P09237 95-267): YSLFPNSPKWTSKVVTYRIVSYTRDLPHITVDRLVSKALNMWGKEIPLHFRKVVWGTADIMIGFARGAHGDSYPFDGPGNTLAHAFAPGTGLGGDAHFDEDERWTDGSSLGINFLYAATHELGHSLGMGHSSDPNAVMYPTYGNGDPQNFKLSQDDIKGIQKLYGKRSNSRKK
Description: as §1, §2, §3

[1] = read-out: Ki rhMMP-2, mean ± SE
[2] = read-out: Ki rhMMP-12, mean ± SE
[3] = read-out: Ki rhMMP-9, mean ± SE

Sequence of rhMMP-12 (P39900 106-470): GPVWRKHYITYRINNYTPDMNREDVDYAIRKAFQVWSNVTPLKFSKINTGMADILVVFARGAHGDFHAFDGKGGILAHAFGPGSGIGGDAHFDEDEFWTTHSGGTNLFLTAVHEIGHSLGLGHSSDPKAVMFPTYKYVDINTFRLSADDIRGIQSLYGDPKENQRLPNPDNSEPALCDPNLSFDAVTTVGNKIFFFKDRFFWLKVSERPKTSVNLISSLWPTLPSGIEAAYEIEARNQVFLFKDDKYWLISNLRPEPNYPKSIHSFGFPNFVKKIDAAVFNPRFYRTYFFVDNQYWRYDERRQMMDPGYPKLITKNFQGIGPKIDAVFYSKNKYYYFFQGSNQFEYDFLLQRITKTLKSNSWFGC
Sequence of rhMMP-9 (P14780 107-707 limits assumed): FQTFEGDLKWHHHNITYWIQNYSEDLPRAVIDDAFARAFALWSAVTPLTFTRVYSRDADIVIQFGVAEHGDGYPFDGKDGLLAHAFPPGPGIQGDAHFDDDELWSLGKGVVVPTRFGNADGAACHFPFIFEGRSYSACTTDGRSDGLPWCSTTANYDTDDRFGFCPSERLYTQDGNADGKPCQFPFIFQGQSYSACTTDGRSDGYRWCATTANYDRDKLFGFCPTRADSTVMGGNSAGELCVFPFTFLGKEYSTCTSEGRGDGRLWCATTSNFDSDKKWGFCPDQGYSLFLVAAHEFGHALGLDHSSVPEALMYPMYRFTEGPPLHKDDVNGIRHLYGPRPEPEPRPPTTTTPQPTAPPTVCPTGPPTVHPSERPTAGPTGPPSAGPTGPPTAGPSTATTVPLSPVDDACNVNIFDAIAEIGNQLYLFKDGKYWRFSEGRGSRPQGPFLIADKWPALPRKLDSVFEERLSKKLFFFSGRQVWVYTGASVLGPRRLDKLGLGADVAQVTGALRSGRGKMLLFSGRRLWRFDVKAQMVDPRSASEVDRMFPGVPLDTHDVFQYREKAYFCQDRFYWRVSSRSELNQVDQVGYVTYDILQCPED

Ki (rhMMP-13)	Ki (rhMMP-2; [1])	Ki (rhMMP-12; [2])	Ki (rhMMP-9; [3])	Ki (rhMMP-7)	SMILES	affinity for rhMMP-2 (in words) (rhMMP-2)	water solubility (in words) (Aqueous solubility)	affinity for rhMMP-12 (in words) (rhMMP-12)	affinity for rhMMP-9 (in words) (rhMMP-9)	MMP binding / inhibition constants (in words) (rhMMPs)	Ki (rhMMP-2)	Ki (rhMMP-12)	Ki (rhMMP-9)
15.3 ± 5.4 nM	5.8 ± 0.4 nM	1 ± 0.2 nM	20.4 ± 2 nM	17.1 ± 0.1 nM	CNC(=O)[C@H](CCCNC(=N)N)NC(=O)[C@@H]1Cc2ccc(cc2)OCCC[C@H](C(=O)NO)[C@@H](CC(C)C)C(=O)N1 [Compound 19, (6S,7R,10S)—N10-((S)-5-guanidino-1-(methylamino)-1-oxopentan-2-yl)-N6-hydroxy-7-isobutyl-8-oxo-2-oxa-9-aza-1(1,4)-benzenacycloundecaphane-6,10-dicarboxamide]					MMP binding profiles similar to the RP805 precursor			
0.3 nM				0.4 nM	CNC(=O)[C@H](Cc1c[nH]c2ccccc12)NC(=O)[C@@H](CC(=O)NO)CC(C)C [GM-6001, reference compound]							0.57 nM	

Second part, the compound before the results:

SMILES	Ki (rhMMP-13)	Ki (rhMMP-2; [1])	Ki (rhMMP-12; [2])	Ki (rhMMP-9; [3])	Ki (rhMMP-7)	affinity for rhMMP-2 (in words) (rhMMP-2)	water solubility (in words) (Aqueous solubility)	affinity for rhMMP-12 (in words) (rhMMP-12)	affinity for rhMMP-9 (in words) (rhMMP-9)	MMP binding / inhibition constants (in words) (rhMMPs)	Ki (rhMMP-2)	Ki (rhMMP-12)	Ki (rhMMP-9)
CC(C)CC1C(=O)NC(C(=O)NC(CCCNC(=N)N)C(=O)NCCNC(=O)c2ccc(NN)nc2)Cc2ccc(cc2)OCCCC1C(=O)NO [Compound 1, (6S,7R,10S)—N^10—((S)-5-guanidino-1-((2-(6-hydrazinylnicotinamido)ethyl)amino)-1-oxopentan-2-yl)-N^6-hydroxy-7-isobutyl-8-oxo-2-oxa-9-aza-1(1,4)-benzenacycloundecaphane-6,10-dicarboxamide]	16.9 ± 2.7 nM	10.4 nM	2.2 ± 0.5 nM	17.4 ± 2.1 nM	33.2 ± 5 nM	high affinity	good aqueous solubility; also recorded: good water solubility	high affinity	high affinity	MMP binding profiles similar to the RP805 precursor; also recorded: nanomolar range inhibition constants			
CC(C)CC1C(=O)NC(C(=O)NCCOCCOCCOCCF)Cc2ccc(cc2)OCCCC1C(=O)NO [Compound 17, (6S,7R,10S)—N10-(2-(2-(2-(2-fluoroethoxy)ethoxy)ethoxy)ethyl)-N^6-hydroxy-7-isobutyl-8-oxo-2-oxa-9-aza-1(1,4)-benzenacycloundecaphane-6,10-dicarboxamide]		8.6 ± 1.3 nM	2.1 ± 0.3 nM	8.8 ± 0.8 nM									
CC(C)C[C@H]1C(=O)N[C@H](C(=O)O)Cc2ccc(cc2)OCCC[C@@H]1C(=O)NO [Compound 20, (6S,7R,10S)-6-(hydroxycarbamoyl)-7-isobutyl-8-oxo-2-oxa-9-aza-1(1,4)-benzenacycloundecaphane-10-carboxylic acid]											101 ± 12.2 nM	1.7 ± 0.2 nM	60.6 ± 11 nM
